# Assay results published in patent US5998487A, “Anti-inflammatory and antibacterial benzyl phenol agents and their use in oral compositions” (Colgate-Palmolive Company, priority 1998, dated 1999).
# Where two headings read alike, the source gives them in different places.
# Columns and labels:
# [1] = test system: PGE2 production in Human Embryo Palatal Mesenchyme cells (HEPM, ATCC #1486); test: Inhibition of PGE2 production in IL-1β-stimulated HEPM cells; format: cell-based; details: for IC50: Homo sapiens, read-out: IC50 Concentration to Inhibit 50% of PGE2
# Method: Specifically, Human Embryo Palatal Mesenchyme cells (HEPM, ATCC #1486) cells were grown in high glycose Delbeco's Modified Eagles Medium (DMEM, Gibco/BRL-Life Technologies, Grand Island, N.Y.) containing 10% heat inactivated fetal bovine serum (FBS, Gibco/BRL). The cells were grown at 37° C., 100% humidity, and 10% CO2. Prior to analysis, the cells were subcultured into 24 well plates, to form 12 sets of duplicate cultures, and allowed to become 70-90% confluent. On day one of the experiment, the cells were washed three times with serum free media (containing 0.5% bovine serum albumin, BSA), followed by replacement with BSA containing media alone (the negative control) in the first culture set; media and 1.0 ng/mL IL-1β (the positive control, without any inhibitor) in the second culture set; and media, 1.0 ng/mL IL-1β, and a range of from 0.01 μM to 50 μM of 2-t-butyl-4-(4-t-butylbenzyl)-phenol in the third thru twelfth culture sets. Exposure was for 24 hours at which time the media was removed from each well, the media's pH was adjusted to 3.5 with HCl, and the media was analyzed for PGE2 produced using a PerSeptive Diagnostics TiterFluor PGE2 EIA kit, available from PerSeptive Biosystems, Framingham, Mass. 01701.
# Prior to determining the PGE2 inhibitory effect of the 2-t-butyl-4-(4-t-butylbenzyl)-phenol compound of the present invention, the results must be normalized with respect to the number of viable cells in each culture well; more or less cells producing correspondingly more or less PGE2. […] Once dissolved, the spectroscopic absorbance of 100 μl of the isopropanol solution from each culture well was determined at 570 nm. A normalization factor, the cell concentration ratio, was calculated for each culture well, by dividing the absorbance of the particular culture well's isopropanol solution by the average absorbance of the unstimulated negative control set's isopropanol solutions. The PGE2 originally determined for each culture well was then normalized by being […] the cell concentration ratio calculated for that particular culture well. […]
# A. viscosus = test: MIC (Minimum Inhibitory Concentration) test; format: cell-based; details: for MIC: Actinomyces viscosus, read-out: MIC (Bacterial Minimum Inhibitory Concentration)
# Method: The smaller the MIC, the greater the antibacterial activity of the compound being tested.
# Using a 96 well microtiter plate, a 100 μl of trypticase soy broth (TSB) media, available from BBL, Cockeysville, Md. 21030, was placed in each of the 12 columns within the plate. Using a octapette pipettor, the 2-t-butyl-4-(4-t-butylbenzyl)-phenol compound was serially diluted to each of the 12 columns, from 125 ppm in the first well of each column, to 0.061 ppm in the 12th (each column containing 1/2 the concentration of 2-t-butyl-4-(4-t-butylbenzyl)-phenol compound than the previous column). To each of the 12 columns an additional 100 μl of TBS was added containing A. viscosus bacterium, a common oral bacteria, at a concentration optical density of 0.1, at 610 nm. The plate was then sealed and incubated for 24 hours at 37° C.
# The procedure of Example IV was simultaneously run with water as a negative control and using a known efficacious antibacterial agent, triclosan, as a comparative and positive control. The MIC determined for the triclosan is also recorded in Table III for comparative purposes.
# COX-2 = biological target: T1, COX-2 (Homo sapiens, UniProt P35354); test: COX-2 inhibition, oxygen utilization assay; format: biochemical
# T1 sequence (P35354 18-604): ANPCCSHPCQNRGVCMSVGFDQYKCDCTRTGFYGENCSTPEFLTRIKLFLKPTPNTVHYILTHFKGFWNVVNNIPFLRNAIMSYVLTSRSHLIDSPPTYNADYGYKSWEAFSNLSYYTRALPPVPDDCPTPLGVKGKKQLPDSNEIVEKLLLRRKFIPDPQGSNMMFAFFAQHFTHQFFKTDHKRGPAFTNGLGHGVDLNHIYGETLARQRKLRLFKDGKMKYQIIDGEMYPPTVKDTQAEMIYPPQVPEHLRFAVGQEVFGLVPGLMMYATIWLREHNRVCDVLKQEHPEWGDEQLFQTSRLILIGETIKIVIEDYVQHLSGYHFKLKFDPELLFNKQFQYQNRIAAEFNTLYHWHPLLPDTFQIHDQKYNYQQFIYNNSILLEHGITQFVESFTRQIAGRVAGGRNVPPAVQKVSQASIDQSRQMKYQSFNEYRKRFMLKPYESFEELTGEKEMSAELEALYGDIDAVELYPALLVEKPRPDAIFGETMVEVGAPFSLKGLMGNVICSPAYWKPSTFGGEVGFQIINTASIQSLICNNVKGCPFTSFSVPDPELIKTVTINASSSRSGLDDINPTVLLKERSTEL
# Excerpt: (§1) The efficacy of the AAB compounds of the present invention as inhibitors of COX-1 and COX-2 enzymes was shown using the oxygen utilization assay described in Dewhirst, Prostaglandins, 22, 209-222 (1980). Varying concentrations of 2-t-butyl-4-(4-t-butylbenzyl)-phenol, a compound of the present invention were selected that inhibit the enzymatic activity from 20% to about 80%, as compared to a positive control, no inhibitor. These varying concentrations of 2-t-butyl-4-(4-t-butylbenzyl)-phenol were independently added to COX-1 and COX-2 enzymes in a closed system, in which the enzymes were reacted in a reaction requiring molecular oxygen. The degree of inhibition of the COX enzyme activity was measured by the reduction in monitored oxygen consumption as a function of time within the closed system. The COX enzyme IC50, concentration of 2-t-butyl-4-(4-t-butylbenzyl)-phenol found to inhibit 50% of the activity of the COX-1 and COX-2 enzymes is recorded in Table II.
# (§2) For comparison, the COX enzyme IC50 assay methodology of Example III was repeated using triclosan, an agent known to inhibit PG by inhibiting the production of its COX-1 and COX-2 precursors.
# COX-1 = COX-1 (Ovis aries, UniProt P05979); test: COX-1 inhibition, oxygen utilization assay; format: biochemical; details: for IC50: oxygen consumption, read-out: IC50 Conc. to Inhibit 50% of COX-1 Activity
# Excerpt: as §1, §2
# cyclooxygenase = details: EP 0 528 468 A1; cited from earlier work
# microbial challenge = details: EP 0 528 468 A1; cited from earlier work
# caries = details: hamsters; Stralfors 1967; cited from earlier work
# Sequence of COX-1 (P05979 25-600): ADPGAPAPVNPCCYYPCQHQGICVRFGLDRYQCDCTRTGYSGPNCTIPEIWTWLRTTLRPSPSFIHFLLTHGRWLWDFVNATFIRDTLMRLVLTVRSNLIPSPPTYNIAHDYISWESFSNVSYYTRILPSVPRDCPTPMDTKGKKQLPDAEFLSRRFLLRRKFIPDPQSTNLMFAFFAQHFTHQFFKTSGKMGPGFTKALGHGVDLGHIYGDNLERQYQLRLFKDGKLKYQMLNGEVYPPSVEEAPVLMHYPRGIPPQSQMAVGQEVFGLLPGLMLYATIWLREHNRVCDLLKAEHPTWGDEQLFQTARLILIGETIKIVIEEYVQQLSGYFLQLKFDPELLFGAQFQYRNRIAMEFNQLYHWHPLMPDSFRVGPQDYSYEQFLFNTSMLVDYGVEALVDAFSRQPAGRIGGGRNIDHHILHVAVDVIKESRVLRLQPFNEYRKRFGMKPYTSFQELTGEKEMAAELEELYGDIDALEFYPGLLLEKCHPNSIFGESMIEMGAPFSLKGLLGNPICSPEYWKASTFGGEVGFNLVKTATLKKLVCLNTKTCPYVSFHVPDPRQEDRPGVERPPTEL
smiles,measurement,setting,value
CC(C)(C)c1ccc(Cc2ccc(O)c(C(C)(C)C)c2)cc1 [2-t-butyl-4-(4-t-butylbenzyl)-phenol],IC50,"[1]; HEPM cells, 1.0 ng/mL IL-1β, 24 hours, normalized to viable cells (MTT)",3.7 µM
same,efficacy as PGE2 inhibitor relative to triclosan,"[1]; vs triclosan, from Table I",~2 times
same,MIC,"A. viscosus; A. viscosus, TSB, 24 hours, 37° C.",0.24 µg/mL
same,MIC relative to that of triclosan,"A. viscosus; vs triclosan, from Table III",about 7%
same,IC50,"COX-2; oxygen consumption, read-out: IC50 Conc. to Inhibit 50% of COX-2 Activity",100 µM
same,efficacy as COX-2 inhibitor relative to triclosan,"COX-2; vs triclosan, from Table II",over 2 times
same,IC50,COX-1,17.4 µM
same,efficacy as COX-1 inhibitor relative to triclosan,"COX-1; vs triclosan, from Table II",over 2 times
"Oc1cc(Cl)ccc1Oc1ccc(Cl)cc1Cl [Triclosan, 2',4,4'-trichloro-2-hydroxy-diphenyl-ether]",inhibition of cyclooxygenase activity,cyclooxygenase,inhibits cyclooxygenase activity
same,IC50,[1]; 24 h,7 µM
same,reduction of microbial challenge,microbial challenge,reduces microbial challenge
same,MIC,A. viscosus; 24 h,3.61 µg/mL
same,IC50,COX-2,229 µM
same,IC50,COX-1,43 µM
"O=C(O)C=Cc1ccc(O)c(O)c1 [caffeic acid, 3,4-dihydroxycinnamic acid]",adverse weight loss,caries,without adverse weight loss
same,inhibition of caries,caries,inhibit caries
"O=C(O)c1ccc(O)c(O)c1 [protocatechuic acid, 3,4-dihydroxybenzoic acid]",adverse weight loss,caries,without adverse weight loss
same,inhibition of caries,caries,inhibit caries
"O=c1c(O)c(-c2ccc(O)c(O)c2)oc2cc(O)cc(O)c12 [quercetin, pentahydroxyflavone]",adverse weight loss,caries,without adverse weight loss
